In patent US20160367623A1, “AGONISTS OF GUANYLATE CYCLASE USEFUL FOR THE TREATMENT OF GASTROINTESTINAL DISORDERS, INFLAMMATION, CANCER AND OTHER DISORDERS” (priority 2015, published 2016):
Bridge positions count the residues as written; N and C are the ends. Ends that are not written are not given here.

Test system: patients with chronic idiopathic constipation (CIC)
Experiment: Second phase 3 CIC trial: change from baseline in CSBMs/week
Type: in vivo, human
Conditions: MRA
[1] = Week 3, 6 mg, ITT Population-Excluding Duplicate Patients
[2] = Week 4, 3 mg, ITT Population-Excluding Duplicate Patients
[3] = Week 4, 6 mg, ITT Population-Excluding Duplicate Patients
[4] = Week 5, 3 mg, ITT Population-Excluding Duplicate Patients
[5] = Week 5, 6 mg, ITT Population-Excluding Duplicate Patients
[6] = Week 6, 3 mg, ITT Population-Excluding Duplicate Patients
[7] = Week 6, 6 mg, ITT Population-Excluding Duplicate Patients
[8] = Week 7, 3 mg, ITT Population-Excluding Duplicate Patients
[9] = Week 7, 6 mg, ITT Population-Excluding Duplicate Patients
[10] = Week 8, 3 mg, ITT Population-Excluding Duplicate Patients

Substance: Asn^1-Asp^2-Glu^3-Cys^4-Glu^5-Leu^6-Cys^7-Val^8-Asn^9-Val^10-Ala^11-Cys^12-Thr^13-Gly^14-Cys^15-Leu^16 (NDECELCVNVACTGCL; disulfide 4-12, 7-15) [Plecanatide, uroguanylin analogue, guanylate cyclase-C agonist; (C4:C12, C7:C15) bicycle peptide]
- Change from Baseline in CSBMs, Mean (SD) (Week 3, 6 mg, ITT Population): 1.82 (2.949) CSBMs/week
- Change from Baseline in CSBMs, Difference from Placebo [1]: 0.61 CSBMs/week
- Change from Baseline in CSBMs, LS Mean (SE) [1]: 1.83 (0.154) CSBMs/week
- Change from Baseline in CSBMs, Mean (SD) [1]: 1.83 (2.958) CSBMs/week
- Change from Baseline in CSBMs, Mean (SD) (Week 3, Active Combined, ITT Population-Excluding Duplicate Patients): 1.89 (3.049) CSBMs/week
- Change from Baseline in CSBMs, Mean (SD) (Week 3, Active Combined, ITT Population): 1.88 (3.032) CSBMs/week
- Change from Baseline in CSBMs, Difference from Placebo (Week 4, 3 mg, ITT Population): 0.91 CSBMs/week
- Change from Baseline in CSBMs, LS Mean (SE) (Week 4, 3 mg, ITT Population): 2.16 (0.153) CSBMs/week
- Change from Baseline in CSBMs, Mean (SD) (Week 4, 3 mg, ITT Population): 2.19 (3.395) CSBMs/week
- Change from Baseline in CSBMs, Difference from Placebo [2]: 0.92 CSBMs/week
- Change from Baseline in CSBMs, LS Mean (SE) [2]: 2.20 (0.156) CSBMs/week
- Change from Baseline in CSBMs, Mean (SD) [2]: 2.22 (3.418) CSBMs/week
- Change from Baseline in CSBMs, Difference from Placebo (Week 4, 6 mg, ITT Population): 0.75 CSBMs/week
- Change from Baseline in CSBMs, LS Mean (SE) (Week 4, 6 mg, ITT Population): 2.00 (0.152) CSBMs/week
- Change from Baseline in CSBMs, Mean (SD) (Week 4, 6 mg, ITT Population): 2.03 (3.243) CSBMs/week
- Change from Baseline in CSBMs, Difference from Placebo [3]: 0.75 CSBMs/week
- Change from Baseline in CSBMs, LS Mean (SE) [3]: 2.02 (0.154) CSBMs/week
- Change from Baseline in CSBMs, Mean (SD) [3]: 2.03 (3.254) CSBMs/week
- Change from Baseline in CSBMs, Mean (SD) (Week 4, Active Combined, ITT Population-Excluding Duplicate Patients): 2.13 (3.335) CSBMs/week
- Change from Baseline in CSBMs, Mean (SD) (Week 4, Active Combined, ITT Population): 2.11 (3.318) CSBMs/week
- Change from Baseline in CSBMs, Difference from Placebo (Week 5, 3 mg, ITT Population): 0.84 CSBMs/week
- Change from Baseline in CSBMs, LS Mean (SE) (Week 5, 3 mg, ITT Population): 2.31 (0.154) CSBMs/week
- Change from Baseline in CSBMs, Mean (SD) (Week 5, 3 mg, ITT Population): 2.39 (3.375) CSBMs/week
- Change from Baseline in CSBMs, Difference from Placebo [4]: 0.85 CSBMs/week
- Change from Baseline in CSBMs, LS Mean (SE) [4]: 2.35 (0.157) CSBMs/week
- Change from Baseline in CSBMs, Mean (SD) [4]: 2.43 (3.395) CSBMs/week
- Change from Baseline in CSBMs, Difference from Placebo (Week 5, 6 mg, ITT Population): 0.48 CSBMs/week
- Change from Baseline in CSBMs, LS Mean (SE) (Week 5, 6 mg, ITT Population): 1.95 (0.153) CSBMs/week
- Change from Baseline in CSBMs, Mean (SD) (Week 5, 6 mg, ITT Population): 1.99 (3.019) CSBMs/week
- Change from Baseline in CSBMs, Difference from Placebo [5]: 0.46 CSBMs/week
- Change from Baseline in CSBMs, LS Mean (SE) [5]: 1.97 (0.154) CSBMs/week
- Change from Baseline in CSBMs, Mean (SD) [5]: 1.99 (3.025) CSBMs/week
- Change from Baseline in CSBMs, Mean (SD) (Week 5, Active Combined, ITT Population-Excluding Duplicate Patients): 2.20 (3.216) CSBMs/week
- Change from Baseline in CSBMs, Mean (SD) (Week 5, Active Combined, ITT Population): 2.18 (3.202) CSBMs/week
- Change from Baseline in CSBMs, Difference from Placebo (Week 6, 3 mg, ITT Population): 1.01 CSBMs/week
- Change from Baseline in CSBMs, LS Mean (SE) (Week 6, 3 mg, ITT Population): 2.32 (0.155) CSBMs/week
- Change from Baseline in CSBMs, Mean (SD) (Week 6, 3 mg, ITT Population): 2.43 (3.548) CSBMs/week
- Change from Baseline in CSBMs, Difference from Placebo [6]: 1.01 CSBMs/week
- Change from Baseline in CSBMs, LS Mean (SE) [6]: 2.35 (0.158) CSBMs/week
- Change from Baseline in CSBMs, Mean (SD) [6]: 2.45 (3.571) CSBMs/week
- Change from Baseline in CSBMs, Difference from Placebo (Week 6, 6 mg, ITT Population): 0.92 CSBMs/week
- Change from Baseline in CSBMs, LS Mean (SE) (Week 6, 6 mg, ITT Population): 2.24 (0.153) CSBMs/week
- Change from Baseline in CSBMs, Mean (SD) (Week 6, 6 mg, ITT Population): 2.29 (3.384) CSBMs/week
- Change from Baseline in CSBMs, Difference from Placebo [7]: 0.93 CSBMs/week
- Change from Baseline in CSBMs, LS Mean (SE) [7]: 2.27 (0.155) CSBMs/week
- Change from Baseline in CSBMs, Mean (SD) [7]: 2.31 (3.391) CSBMs/week
- Change from Baseline in CSBMs, Mean (SD) (Week 6, Active Combined, ITT Population-Excluding Duplicate Patients): 2.38 (3.478) CSBMs/week
- Change from Baseline in CSBMs, Mean (SD) (Week 6, Active Combined, ITT Population): 2.36 (3.464) CSBMs/week
- Change from Baseline in CSBMs, Difference from Placebo (Week 7, 3 mg, ITT Population): 0.81 CSBMs/week
- Change from Baseline in CSBMs, LS Mean (SE) (Week 7, 3 mg, ITT Population): 2.29 (0.155) CSBMs/week
- Change from Baseline in CSBMs, Mean (SD) (Week 7, 3 mg, ITT Population): 2.40 (3.413) CSBMs/week
- Change from Baseline in CSBMs, Difference from Placebo [8]: 0.83 CSBMs/week
- Change from Baseline in CSBMs, LS Mean (SE) [8]: 2.33 (0.158) CSBMs/week
- Change from Baseline in CSBMs, Mean (SD) [8]: 2.44 (3.435) CSBMs/week
- Change from Baseline in CSBMs, Difference from Placebo (Week 7, 6 mg, ITT Population): 0.82 CSBMs/week
- Change from Baseline in CSBMs, LS Mean (SE) (Week 7, 6 mg, ITT Population): 2.31 (0.154) CSBMs/week
- Change from Baseline in CSBMs, Mean (SD) (Week 7, 6 mg, ITT Population): 2.38 (3.361) CSBMs/week
- Change from Baseline in CSBMs, Difference from Placebo [9]: 0.83 CSBMs/week
- Change from Baseline in CSBMs, LS Mean (SE) [9]: 2.34 (0.155) CSBMs/week
- Change from Baseline in CSBMs, Mean (SD) [9]: 2.40 (3.369) CSBMs/week
- Change from Baseline in CSBMs, Mean (SD) (Week 7, Active Combined, ITT Population-Excluding Duplicate Patients): 2.42 (3.399) CSBMs/week
- Change from Baseline in CSBMs, Mean (SD) (Week 7, Active Combined, ITT Population): 2.39 (3.384) CSBMs/week
- Change from Baseline in CSBMs, Difference from Placebo (Week 8, 3 mg, ITT Population): 1.01 CSBMs/week
- Change from Baseline in CSBMs, LS Mean (SE) (Week 8, 3 mg, ITT Population): 2.52 (0.156) CSBMs/week
- Change from Baseline in CSBMs, Mean (SD) (Week 8, 3 mg, ITT Population): 2.67 (3.747) CSBMs/week
- Change from Baseline in CSBMs, Difference from Placebo [10]: 1.06 CSBMs/week
- Change from Baseline in CSBMs, LS Mean (SE) [10]: 2.56 (0.158) CSBMs/week
- Change from Baseline in CSBMs, Mean (SD) [10]: 2.68 (3.765) CSBMs/week
- Change from Baseline in CSBMs, Difference from Placebo (Week 8, 6 mg, ITT Population): 0.82 CSBMs/week
- Change from Baseline in CSBMs, LS Mean (SE) (Week 8, 6 mg, ITT Population): 2.33 (0.154) CSBMs/week
